# Data taken from patent publication US12486218B2, “Compounds advantageous in the treatment of central nervous system diseases and disorders” (AurimMed Pharma, Inc., priority 2008, dated 2025).
# Read-outs that look alike come from different tables or passages of the source.
# How the values were obtained:
# mice [1] = test: 6 Hz (minimal clonic seizure) model, mice i.p.; type: in vivo; details: for activity in the 6 Hz (minimal clonic seizure) model: mice; for 6 Hz (32 mA), fraction of animals: mice i.p.
# mice [2] = test: Subcutaneous Metrazol Seizure threshold (s.c. MET) test, mice i.p.; type: in vivo; details: for activity in the s.c. MET test: mice, at 300 mg/kg; for s.c. MET, fraction of animals: mice i.p.
# mice [3] = test: Maximal Electroshock Seizure (MES) test, mice i.p.; type: in vivo; details: for MES, fraction of animals: mice i.p.; for activity in the MES test: mice
# SMN2 promoter = SMN2 promoter β-lactamase reporter assay in NSC34 motor neuron-like cells; type: cell-based; details: for Promoter (SMN2 promoter test, summary YES/NO): Table 13 summary; for SMN2 promoter activity: treatment for 19 hours at a concentration of 1 μM
# Protocol: FIG. 30 illustrates a screen for SMN2 expression of a number of compounds described herein.
# SMN2 promoter activity was measured using NSC34 motor neuron-like cells stably transfected with a β-lactamase (BLA) reporter gene under the control of a 3.4-kilobase fragment of the SMN2 promoter. D156844 was used as a positive control for this assay.
# rats = test: Pilocarpine-induced Status Epilepticus in Rats (prevention; intervention @ 30 min); details: for Prevention, Protection: rats, pilocarpine-induced status epilepticus
# Protocol: The animal testing was performed using the protocols developed in the Anticonvulsant Screening Program (ASP) at the National Institute of Neurological Disorders and Stroke (NINDS), National Institutes of Health (NIH).
# [4] = Rattus norvegicus, read-out: Prevention, Protection
# [5] = Rattus norvegicus, 0.5 h, read-out: Intervention @ 30 min, Protection
smiles,measurement,setting,value
"CC(C)C[C@H](NC(=O)[C@@H]1C[C@H]1c1ccccc1)C(N)=O (mixture of isomers) [Compound Q, trans-2-Phenylcyclopropane-carboxylic acid-((S)-1-carbamoyl-3-methylbutyl)amide]",activity in the 6 Hz (minimal clonic seizure) model,mice [1]; at 300 mg/kg,activity
"CC[C@H](NC(=O)[C@@H]1C[C@H]1c1ccccc1)C(N)=O (mixture of isomers) [Compound Q-1, trans-2-Phenylcyclopropane-carboxylic acid-((S)-1-carbamoyl-propyl)amide]",activity in the s.c. MET test,mice [2],activity
same,"MES, fraction of animals",mice [3]; 100 mg/kg @ 0.5 hr,2/3
same,"MES, fraction of animals",mice [3]; 100 mg/kg @ 4.0 hr,1/3
same,activity in the MES test,mice [3]; at 300 mg/kg,activity
same,"6 Hz (32 mA), fraction of animals",mice [1]; 50 mg/kg @ 0.25 hr,1/4 @0.25
same,"6 Hz (32 mA), fraction of animals",mice [1]; 100 mg/kg @ 0.25 hr,4/4
same,"6 Hz (32 mA), fraction of animals",mice [1]; 100 mg/kg @ 0.5 hr,3/4
same,"6 Hz (32 mA), fraction of animals",mice [1]; 100 mg/kg @ 1.0 hr,4/4
same,"6 Hz (32 mA), fraction of animals",mice [1]; 100 mg/kg @ 2.0 hr,1/4
same,activity in the 6 Hz (minimal clonic seizure) model,mice [1]; at 100 mg/kg,activity
CCOc1ccc(C(C)CC(N)=O)cc1 (racemic) [CA],"Promoter (SMN2 promoter test, summary YES/NO)",SMN2 promoter,YES
same,SMN2 promoter activity,SMN2 promoter,increased SMN2 promoter activity
same,"Prevention, Protection",rats; dose 600 mg/kg,100%
same,activity in the 6 Hz (minimal clonic seizure) model,mice [1]; at 100 mg/kg,activity
CC(C)Oc1ccc(C(C)CC(N)=O)cc1 (racemic) [CB],"Prevention, Protection",rats; dose 200 mg/kg,100%
same,"MES, fraction of animals",mice [3]; 100 mg/kg @ 0.25 hr,3/3
same,"MES, fraction of animals",mice [3]; 100 mg/kg @ 1.0 hr,1/3
Cc1ccc(C(C)CC(N)=O)cn1 (racemic) [CH],"6 Hz (32 mA), fraction of animals",mice [1]; 50 mg/kg @ 0.25 hr,"1/4, 1/4"
same,"6 Hz (32 mA), fraction of animals",mice [1]; 50 mg/kg @ 0.5 hr,"1/4, 1/4"
COc1ccc(C(C)CC(N)=O)cn1 (racemic) [CI],"6 Hz (32 mA), fraction of animals",mice [1]; 100 mg/kg @ 0.25 hr,1/4 @ 0.25 hr
Cc1nccnc1C(C)CC(N)=O (racemic) [CZ],"6 Hz (32 mA), fraction of animals",mice [1]; 100 mg/kg @ 0.25 hr,1/4 @
same,"6 Hz (32 mA), fraction of animals",mice [1]; 100 mg/kg @ 0.5 hr,1/4 @
same,"6 Hz (32 mA), fraction of animals",mice [1]; 100 mg/kg @ 2.0 hr,hrs and 2/4
CCc1nccnc1C(C)CC(N)=O (racemic) [DB],SMN2 promoter activity,SMN2 promoter,increased SMN2 promoter activity
same,"6 Hz (32 mA), fraction of animals",mice [1]; 100 mg/kg @ 4.0 hr,1/4 @ 4.0 hrs.
CC(CC(N)=O)c1cnccn1 (racemic) [DC],"Promoter (SMN2 promoter test, summary YES/NO)",SMN2 promoter,YES
same,SMN2 promoter activity,SMN2 promoter,increased SMN2 promoter activity
Cc1cnc(C(C)CC(N)=O)c(C)n1 (racemic) [DD],"Promoter (SMN2 promoter test, summary YES/NO)",SMN2 promoter,YES
same,SMN2 promoter activity,SMN2 promoter,increased SMN2 promoter activity
same,"6 Hz (32 mA), fraction of animals",mice [1]; 100 mg/kg @ 0.5 hr,"1/4 @ 0.5 hr,"
Cc1nc2ccccc2nc1C(C)CC(N)=O (racemic) [DE],"6 Hz (32 mA), fraction of animals",mice [1]; 100 mg/kg @ 0.25 hr,1/4 @
same,"6 Hz (32 mA), fraction of animals",mice [1]; 100 mg/kg @ 0.5 hr,1/4 @
Cc1ccc(C(C)CC(N)=O)c(C)n1 (racemic) [DF],"6 Hz (32 mA), fraction of animals",mice [1]; 100 mg/kg @ 2.0 hr,1/4 @ 2.0
same,"6 Hz (32 mA), fraction of animals",mice [1]; 100 mg/kg @ 4.0 hr,1/4 @ 2.0
"CCC(CC(N)=O)c1ccc(OC)cc1 (stereo not drawn) [AB, 3-(4-Methoxy-phenyl)-pentanoicacid amide]",responders at 450 mg/kg,rats; [4],100%
NC(=O)CC1(c2ccc(Cl)cc2)CCCCC1 [AK],"MES, fraction of animals",mice [3]; 100 mg/kg @ 0.25 hr,3/4
same,"MES, fraction of animals",mice [3]; 100 mg/kg @ 2.0 hr,1/4
same,"6 Hz (32 mA), fraction of animals",mice [1]; 100 mg/kg @ 0.25 hr,4/4
same,"6 Hz (32 mA), fraction of animals",mice [1]; 100 mg/kg @ 0.5 hr,3/4
same,"6 Hz (32 mA), fraction of animals",mice [1]; 100 mg/kg @ 1.0 hr,1/4 @
"NC(=O)CC(c1ccc2c(c1)OCCO2)C1CC1 (stereo not drawn) [AP, 3-Cyclopropyl-3-(2,3dihydro-benzo[1,4]dioxin-6-yl)propionamide]",responders at 600 mg/kg,rats; [5],75%
same,responders at 450 mg/kg,rats; [4],75%
same,activity in the s.c. MET test,mice [2],activity
same,activity in the MES test,mice [3]; at 300 mg/kg,activity
"CC(C)C(CC(N)=O)c1ccc(Cl)cc1 (stereo not drawn) [AR, 3-(4-Chloro-phenyl)-4-methyl-pentanoic-acid-amide]","SMN2 promoter assay, evidence of activity (may warrant further study)",SMN2 promoter; NSC34 BLA reporter cells,show evidence of activity
same,activity in the s.c. MET test,mice [2],activity
same,activity in the MES test,mice [3]; at 300 mg/kg,activity
same,"6 Hz (32 mA), fraction of animals",mice [1]; 100 mg/kg @ 0.25 hr,3/4
same,"6 Hz (32 mA), fraction of animals",mice [1]; 100 mg/kg @ 0.5 hr,2/4
COc1ccc(C2(CC(N)=O)CCCC2)cc1 [AZ],SMN2 promoter activity,SMN2 promoter,increased SMN2 promoter activity
"NC(=O)C1CC1(c1ccccc1)c1ccccc1 (stereo not drawn) [BB, 2,2-Diphenyl-cyclopropanecarboxylicacid amide]",SMN2 promoter activity,SMN2 promoter,increased SMN2 promoter activity
same,activity in the 6 Hz (minimal clonic seizure) model,mice [1]; at 100 mg/kg,activity
"CNC(=O)CC(C)c1ccc(OC(F)(F)F)cc1 (stereo not drawn) [BC, N-Methyl-3-(4-trifluoromethoxyphenyl)-butyramide]",activity in the s.c. MET test,mice [2],activity
"CC(CC(=O)N1CCOCC1)c1ccc(OC(F)(F)F)cc1 (stereo not drawn) [BI, 1-Morpholin-4-yl-3-(4-trifluoromethoxy-phenyl)-butan-1-one]",activity in the s.c. MET test,mice [2],activity
same,"6 Hz (32 mA), fraction of animals",mice [1]; 50 mg/kg @ 0.25 hr,2/4
same,"6 Hz (32 mA), fraction of animals",mice [1]; 50 mg/kg @ 0.5 hr,1/4
"CC(CC(=O)N1CCC(C(N)=O)CC1)c1ccc(OC(F)(F)F)cc1 (stereo not drawn) [BN, 1-[3-(4-Trifluoromethoxy-phenyl)-butyryl]-piperidine-4carboxylic acidamide]","SMN2 promoter assay, evidence of activity (may warrant further study)",SMN2 promoter; NSC34 BLA reporter cells,show evidence of activity
same,activity in the MES test,mice [3]; at 300 mg/kg,activity
"CC(C)C[C@@H](NC(=O)CC(C)c1ccc(OC(F)(F)F)cc1)C(N)=O (stereo partly drawn) [BP, (R)-4-Methyl-2-[3-(4-trifluoromethoxy-phenyl)-butyrylamino]-pentanoic acid amide]","6 Hz (32 mA), fraction of animals",mice [1]; 100 mg/kg @ 0.25 hr,1/4 @ 0.25
"CC[C@H](NC(=O)CC(C)c1ccc(OC(F)(F)F)cc1)C(N)=O (stereo partly drawn) [BR, N-((S)-1-Carbamoyl-propyl)-3-(4-trifluoromethoxy-phenyl)-butyramide]",activity in the MES test,mice [3]; at 100 mg/kg,activity
same,"6 Hz (32 mA), fraction of animals",mice [1]; 100 mg/kg @ 0.5 hr,1/4 @ 0.5
"CC(CC(=O)N[C@@H](C)C(N)=O)c1ccc(OC(F)(F)F)cc1 (stereo partly drawn) [BS, N-((S)-1-Carbamoyl-ethyl)-3-(4-trifluoromethoxy-phenyl)-butyramide]",activity in the MES test,mice [3]; at 300 mg/kg,activity
same,"6 Hz (32 mA), fraction of animals",mice [1]; 100 mg/kg @ 1.0 hr,1/4 @ 1.0
"CC(CC(N)=O)c1ccc(Cl)c(Cl)c1 (stereo not drawn) [BW, 3-[3,4-dichloro-phenyl]butyramide]","s.c. MET, fraction of animals",mice [2]; 30 mg/kg @ 4.0 hr,1/1 @ 4.0
same,"s.c. MET, fraction of animals",mice [2]; 100 mg/kg @ 4.0 hr,1/1 @ 4.0
same,"MES, fraction of animals",mice [3]; 100 mg/kg @ 0.5 hr,1/3 @
"CC(C)c1ccc(C(C)CC(N)=O)cc1 (stereo not drawn) [Compound AW, 3-(4-Isopropylphenyl)butyramide]",SMN2 promoter activity,SMN2 promoter,increased SMN2 promoter activity
same,responders at 200 mg/kg,rats; [5],25%
same,responders at 450 mg/kg,rats; [4],75%
same,activity in the MES test,mice [3]; at 300 mg/kg,activity
same,"6 Hz (32 mA), fraction of animals",mice [1]; 200 mg/kg @ 0.25 hr,"4/4, 4/4 @"
same,"6 Hz (32 mA), fraction of animals",mice [1]; 200 mg/kg @ 0.5 hr,"4/4, 4/4 @"
same,activity in the 6 Hz (minimal clonic seizure) model,mice [1]; at 200 mg/kg,activity
"CC(O)(CC(N)=O)c1ccc(OC(F)(F)F)cc1 (stereo not drawn) [Compound CC, 3-hydroxy-3-(4(trifluoromethoxy)-phenyl)butanamide]",responders at 200 mg/kg,rats; [4],100%
same,"MES, fraction of animals",mice [3]; 100 mg/kg @ 0.5 hr,3/3
same,"MES, fraction of animals",mice [3]; 100 mg/kg @ 4.0 hr,2/3
"CC(CC(N)=O)c1cccc(F)c1 (stereo not drawn) [Compound D, 3-(3-Fluorophenyl)butyramide]",responders at 400 mg/kg,rats; [5],75%
same,responders at 200 mg/kg,rats; [4],100%
same,activity in the s.c. MET test,mice [2],activity
same,activity in the MES test,mice [3]; at 300 mg/kg,activity
"CC(CC(N)=O)Oc1ccc(C#N)cc1 (stereo not drawn) [Compound O, 3-(4-Cyanophenoxy)butyramide]",responders at 450 mg/kg,rats; [4],50%
"COc1ccc(C(C)CC(N)=O)cc1Cl (stereo not drawn) [J, 3-(3-chloro-4-methoxy-phenyl)butyramide]",responders at 600 mg/kg,rats; [5],38%
same,responders at 600 mg/kg,rats; [4],75%
same,activity in the s.c. MET test,mice [2],activity
"CC(CC(N)=O)c1ccc2c(c1)OCCO2 (stereo not drawn) [K, 3-(3,4-ethylenedioxy-phenyl)butyramide]","SMN2 promoter assay, particularly strong hits",SMN2 promoter; NSC34 BLA reporter cells,particularly strong hits
same,"Promoter (SMN2 promoter test, summary YES/NO)",SMN2 promoter,YES
same,SMN2 promoter activity,SMN2 promoter,increased SMN2 promoter activity
same,responders at 600 mg/kg,rats; [5],38%
same,responders at 300 mg/kg,rats; [4],50%
